Measurements published in the supplement of paper PMC4932681.

Key:
ZR-75-1 Tam2 = experiment: drug sensitivity score (DSS) (DSS (dimensionless)); higher = more sensitive; extreme values may be limits of the assay; conditions: 4-OH-tamoxifen in medium 1 µM; 72 h
Method in brief: (§1)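 Breast cancer cell lines and their resistant derivatives were seeded into 384-well plates containing library drugs at five concentrations across a 10 000-fold range, with resistant lines kept in medium with 1 μM of the selecting drug. After 72 h at 37 °C, CellTiter-Glo viability was read on a PHERAstar and normalised to vehicle-only and positive controls. Logistic dose–response fits in the Breeze pipeline gave drug sensitivity score, relative IC50 (curve midpoint) and top-dose inhibition.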

T-47D Tam1 [1] = experiment: as above; conditions: 4-OH-tamoxifen in medium 1 µM; 72 h
Method in brief: as §1

MCF-7 [2] = experiment: as above; conditions: 72 h
Method in brief: as §1

BT-474 Tam1 [3] = experiment: as above; conditions: 4-OH-tamoxifen in medium 1 µM; 72 h
Method in brief: as §1

BT-474 [4] = experiment: as above; conditions: 72 h
Method in brief: as §1

ZR-75-1 Tam1 [5] = experiment: as above; conditions: 4-OH-tamoxifen in medium 1 µM; 72 h
Method in brief: as §1

BT-474 Tam2 [6] = experiment: as above; conditions: 4-OH-tamoxifen in medium 1 µM; 72 h
Method in brief: as §1

T-47D [7] = experiment: as above; conditions: 72 h
Method in brief: as §1

ZR-75-1 [8] = experiment: as above; conditions: 72 h
Method in brief: as §1

MCF-7 Tam1 [9] = experiment: as above; conditions: 4-OH-tamoxifen in medium 1 µM; 72 h
Method in brief: as §1

T-47D Tam2 [10] = experiment: as above; conditions: 4-OH-tamoxifen in medium 1 µM; 72 h
Method in brief: as §1

T-47D Tam1 [11] = experiment: relative IC50 (midpoint of fitted logistic curve, plateau may be below 50% inhibition; CellTiter-Glo viability); higher = less potent; conditions: 4-OH-tamoxifen in medium 1 µM; 72 h
Method in brief: as §1

MCF-7 [12] = experiment: as above; conditions: 72 h
Method in brief: as §1

BT-474 Tam1 [13] = experiment: as above; conditions: 4-OH-tamoxifen in medium 1 µM; 72 h
Method in brief: as §1

BT-474 [14] = experiment: as above; conditions: 72 h
Method in brief: as §1

BT-474 Tam2 [15] = experiment: as above; conditions: 4-OH-tamoxifen in medium 1 µM; 72 h
Method in brief: as §1

T-47D [16] = experiment: as above; conditions: 72 h
Method in brief: as §1

ZR-75-1 [17] = experiment: as above; conditions: 72 h
Method in brief: as §1

MCF-7 Tam1 [18] = experiment: as above; conditions: 4-OH-tamoxifen in medium 1 µM; 72 h
Method in brief: as §1

T-47D Tam2 [19] = experiment: as above; conditions: 4-OH-tamoxifen in medium 1 µM; 72 h
Method in brief: as §1

ZR-75-1 Tam1 [20] = experiment: as above; conditions: 4-OH-tamoxifen in medium 1 µM; 72 h
Method in brief: as §1

| SMILES | drug sensitivity score (ZR-75-1 Tam2) | drug sensitivity score (T-47D Tam1 [1]) | drug sensitivity score (MCF-7 [2]; 4-OH-tamoxifen in medium 0 µM) | drug sensitivity score (MCF-7 [2]; 4-OH-tamoxifen in medium 1 µM) | drug sensitivity score (BT-474 Tam1 [3]) | drug sensitivity score (BT-474 [4]; 4-OH-tamoxifen in medium 0 µM) | drug sensitivity score (BT-474 [4]; 4-OH-tamoxifen in medium 1 µM) | drug sensitivity score (ZR-75-1 Tam1 [5]) | drug sensitivity score (BT-474 Tam2 [6]) | drug sensitivity score (T-47D [7]; 4-OH-tamoxifen in medium 0 µM) | drug sensitivity score (T-47D [7]; 4-OH-tamoxifen in medium 1 µM) | drug sensitivity score (ZR-75-1 [8]; 4-OH-tamoxifen in medium 0 µM) | drug sensitivity score (ZR-75-1 [8]; 4-OH-tamoxifen in medium 1 µM) | drug sensitivity score (MCF-7 Tam1 [9]) | drug sensitivity score (T-47D Tam2 [10]) | relative IC50 (T-47D Tam1 [11]) [µM] | relative IC50 (MCF-7 [12]; 4-OH-tamoxifen in medium 0 µM) [µM] | relative IC50 (BT-474 Tam1 [13]) [µM] | relative IC50 (BT-474 [14]; 4-OH-tamoxifen in medium 0 µM) [µM] | relative IC50 (BT-474 [14]; 4-OH-tamoxifen in medium 1 µM) [µM] | relative IC50 (BT-474 Tam2 [15]) [µM] | relative IC50 (T-47D [16]; 4-OH-tamoxifen in medium 0 µM) [µM] | relative IC50 (T-47D [16]; 4-OH-tamoxifen in medium 1 µM) [µM] | relative IC50 (ZR-75-1 [17]; 4-OH-tamoxifen in medium 0 µM) [µM] | relative IC50 (MCF-7 Tam1 [18]) [µM] | relative IC50 (T-47D Tam2 [19]) [µM] | relative IC50 (ZR-75-1 Tam1 [20]) [µM] | relative IC50 (ZR-75-1 [17]; 4-OH-tamoxifen in medium 1 µM) [µM] | relative IC50 (MCF-7 [12]; 4-OH-tamoxifen in medium 1 µM) [µM] |
| --- | --- | --- | --- | --- | --- | --- | --- | --- | --- | --- | --- | --- | --- | --- | --- | --- | --- | --- | --- | --- | --- | --- | --- | --- | --- | --- | --- | --- | --- |
| C=CCN(/C=C1/C(=O)O[C@H](COC)[C@@]2(C)C1=C(O)C(=O)C1=C2[C@H](OC(C)=O)C[C@]2(C)C(=O)CC[C@@H]12)CC=C [Sonolisib (PX-866)] | 0.0742 | 0 | 0 | 0 | 0 | 0 | 0 | 0.103 | 0 | 0 | 0 | 0 | 0.361 | 0 | 0 | > 10 | > 10 | > 10 | > 10 | > 10 | > 10 | > 10 | > 10 | > 10 | > 10 | > 10 |  |  |  |
| C[C@@H]1CCN(C(=O)CC#N)C[C@@H]1N(C)c1ncnc2[nH]ccc12 [Tofacitinib (Tasocitinib)] | 0.0132 | 0 | 0 | 0.208 | 0 | 0 | 0 | 0 | 0 | 0 | 0 | 0 | 0 | 0 | 0 | > 5 | > 5 | > 5 | > 5 | > 5 | > 5 | > 5 | > 5 | > 5 | > 5 | > 5 | > 5 | > 5 |  |
| CN(C)CCOc1ccc(/C(=C(/CCCl)c2ccccc2)c2ccccc2)cc1 [Toremifene (citrate)] | 0.814 | 3.53 | 0.353 | 3.26 | 4.96 | 0.652 | 4.16 | 0.357 | 5.77 | 0 | 0 | 0 | 0.599 | 1.2 | 3.09 | 1.86 |  | 3.41 |  | 3.52 | 3.02 | > 10 | > 10 | > 10 | 4.15 | 3.46 |  |  | 3.69 |
| CCC1=C[C@@H]2CN(C1)Cc1c([nH]c3ccccc13)[C@@](C(=O)OC)(c1cc3c(cc1OC)N(C)[C@H]1[C@@](O)(C(=O)OC)[C@H](OC(C)=O)[C@]4(CC)C=CCN5CC[C@]31[C@@H]54)C2 [Vinorelbine (tartrate)] | 2.36 | 7.24 | 9.78 | 12.3 | 17.2 | 13.8 | 23 | 1.16 | 14.3 | 6.22 | 2.28 | 9.06 | 3.16 | 0 | 8.26 | 0.687 | 0.202 | 0.249 | 0.0429 | 0.0843 | 0.442 |  | 1.73 | 0.0433 | > 10 | 0.583 |  | 1.54 | 0.141 |
